Experimental data taken from patent publication US9328374B2, “Selective culture medium and method for detecting carbapenem-resistant bacteria in a test sample” (Institut National de la Sante et de la Recherche Medicale …, priority 2011, dated 2016).

Key:
Experiment in all cases: MIC of imipenem, ertapenem and meropenem
C. koseri = assay type: cell-based
E. cloacae = assay type: cell-based, Enterobacter cloacae
E. coli = assay type: cell-based, Escherichia coli

Structure (SMILES): C[C@@H](O)[C@H]1C(=O)N2C(C(=O)O)=C(SCCN=CN)C[C@H]12 [IPM, imipenem]
- MIC (C. koseri; C. koseri ROU, OXA-48): 0.38 µg/mL
- MIC (C. koseri; C. koseri VER (OXA-48)): 0.75 µg/mL
- MIC (C. koseri; C. koseri VER, OXA-48): 0.75 µg/mL
- MIC (C. koseri; strain C. koseri VER, OXA-48): 0.75 µg/mL
- MIC (E. cloacae; E. cloacae 501, OXA-48 + TEM-1 + CTX-M-15): 1 µg/mL
- MIC (E. cloacae; E. cloacae 1012, TEM-1 + SHV-12, non-carbapenemase producer): 0.19 µg/mL
- MIC (E. cloacae; E. cloacae 1019, TEM-1, non-carbapenemase producer, overexpressed AmpC): 0.25 µg/mL
- MIC (E. cloacae; E. cloacae 1027, TEM-1 + CTX-M-15, non-carbapenemase producer): 0.19 µg/mL
- MIC (E. cloacae; E. cloacae 1072, TEM-1 + OXA-1, non-carbapenemase producer, overexpressed AmpC): 0.38 µg/mL
- MIC (E. cloacae; E. cloacae 5434 (wild type)): 0.38 µg/mL
- MIC (E. cloacae; E. cloacae 5434, (wild type), non-carbapenemase producer): 0.38 µg/mL
- MIC (E. cloacae; E. cloacae 7725, (wild type), non-carbapenemase producer): 0.19 µg/mL
- MIC (E. cloacae; E. cloacae 7746, (wild type), non-carbapenemase producer): 0.38 µg/mL
- MIC (E. cloacae; E. cloacae 10111 (TEM-1 + CTX-M-15)): 0.5 µg/mL
- MIC (E. cloacae; E. cloacae 10111, TEM-1 + CTX-M-15, non-carbapenemase producer, overexpressed AmpC): 0.5 µg/mL
- MIC (E. cloacae; E. cloacae 1008029, VIM-1+ CTX-M-3): >32 µg/mL
- MIC (E. cloacae; E. cloacae 1008079, IMP-1): 8 µg/mL
- MIC (E. cloacae; E. cloacae 1008187, IMP-1 + CTX-M-15): 8 µg/mL
- MIC (E. cloacae; E. cloacae (KPC-2)): 4 µg/mL
- MIC (E. cloacae; E. cloacae ARF (overexpressed AmpC)): 0.12 µg/mL
- MIC (E. cloacae; E. cloacae ARF, Overexpressed AmpC, non-carbapenemase producer): 0.12 µg/mL
- MIC (E. cloacae; E. cloacae AZA (overexpressed AmpC)): 0.12 µg/mL
- MIC (E. cloacae; E. cloacae AZA, Overexpressed AmpC, non-carbapenemase producer): 0.12 µg/mL
- MIC (E. cloacae; E. cloacae BEU, OXA-48 + TEM-1 + CTX-M-15 + SHV-12): 0.5 µg/mL
- MIC (E. cloacae; E. cloacae BLA (overexpressed AmpC)): 0.12 µg/mL
- MIC (E. cloacae; E. cloacae BLA, Overexpressed AmpC, non-carbapenemase producer): 0.12 µg/mL
- MIC (E. cloacae; E. cloacae CFVL, KPC-2 + TEM-3): 4 µg/mL
- MIC (E. cloacae; E. cloacae CLO (CTX-M-15)): 0.12 µg/mL
- MIC (E. cloacae; E. cloacae CLO, CTX-M-15, non-carbapenemase producer): 0.12 µg/mL
- MIC (E. cloacae; E. cloacae CON (overexpressed AmpC)): 0.12 µg/mL
- MIC (E. cloacae; E. cloacae CON, Overexpressed AmpC, non-carbapenemase producer): 0.25 µg/mL
- MIC (E. cloacae; E. cloacae CVB (VEB-1)): 0.12 µg/mL
- MIC (E. cloacae; E. cloacae CVB, VEB-1, non-carbapenemase producer): 0.12 µg/mL
- MIC (E. cloacae; E. cloacae HMG, KPC-2 + TEM-1): 24 µg/mL
- MIC (E. cloacae; E. cloacae HPTU (KPC-2 + TEM-1 + SHV-11)): 2 µg/mL
- MIC (E. cloacae; E. cloacae HPTU, KPC-2 + TEM-1 + SHV-11): 2 µg/mL
- MIC (E. cloacae; E. cloacae IR38 (NDM-1 + CTX-M-15)): 2 µg/mL
- MIC (E. cloacae; E. cloacae IR38, NDM-1 + CTX-M-15): 2 µg/mL
- MIC (E. cloacae; E. cloacae KAR, VIM-1+ SHV-70): 1 µg/mL
- MIC (E. cloacae; E. cloacae TAW (IMP-8 + SHV-12)): 0.75 µg/mL
- MIC (E. cloacae; E. cloacae TAW, IMP-8 + SHV-12): 0.75 µg/mL
- MIC (E. cloacae; E. cloacae TUR (OXA-48 + SHV-5)): 0.5 µg/mL
- MIC (E. cloacae; E. cloacae TUR, OXA-48 + SHV-5): 0.5 µg/mL
- MIC (E. cloacae; E. cloacae TWA, IMP-8): 1.5 µg/mL
- MIC (E. cloacae; strain E. cloacae 10111, TEM-1 + CTX-M-15, non-carbapenemase producer): 0.5 µg/mL
- MIC (E. cloacae; strain E. cloacae BLA, Overexpressed AmpC, non-carbapenemase producer): 0.12 µg/mL
- MIC (E. cloacae; strain E. cloacae CLO, CTX-M-15, non-carbapenemase producer): 0.12 µg/mL
- MIC (E. cloacae; strain E. cloacae CON, Overexpressed AmpC, non-carbapenemase producer): 0.12 µg/mL
- MIC (E. cloacae; strain E. cloacae CVB, VEB-1, non-carbapenemase producer): 0.12 µg/mL
- MIC (E. cloacae; strain E. cloacae HPTU, KPC-2 + TEM-1 + SHV-11): 2 µg/mL
- MIC (E. cloacae; strain E. cloacae TAW, IMP-8 + SHV-12): 0.75 µg/mL
- MIC (E. cloacae; strain E. cloacae TUR, OXA-48 + SHV-5): 0.5 µg/mL
- MIC (E. coli; E. coli 1008 (TEM-1 + CTX-M-1)): 0.19 µg/mL
- MIC (E. coli; E. coli 1008, CTX-M-1 + TEM-1, non-carbapenemase producer): 0.19 µg/mL
- MIC (E. coli; E. coli 1020, CTX-M-1 + TEM-1, non-carbapenemase producer): 0.19 µg/mL
- MIC (E. coli; E. coli 1023, CTX-M-2 + TEM-1, non-carbapenemase producer): 0.12 µg/mL
- MIC (E. coli; E. coli 1033, CTX-M-15, non-carbapenemase producer): 0.19 µg/mL
- MIC (E. coli; E. coli 1034 (TEM-1 + SHV-38)): 0.19 µg/mL
- MIC (E. coli; E. coli 1034, TEM-1 + SHV-38, non-carbapenemase producer): 0.19 µg/mL
- MIC (E. coli; E. coli 1048 (TEM-1 + SHV-2a)): 0.19 µg/mL
- MIC (E. coli; E. coli 1048, TEM-1 + SHV-2a, non-carbapenemase producer): 0.19 µg/mL
- MIC (E. coli; E. coli 1082 (TEM-1)): 0.19 µg/mL
- MIC (E. coli; E. coli 1082, TEM-1, non-carbapenemase producer): 0.19 µg/mL
- MIC (E. coli; E. coli 1092 (OXA-1)): 0.12 µg/mL
- MIC (E. coli; E. coli 1092, OXA-1, non-carbapenemase producer): 0.12 µg/mL
- MIC (E. coli; E. coli 6252, (wild type), non-carbapenemase producer): 0.12 µg/mL
- MIC (E. coli; E. coli 6367 (wild type)): 0.19 µg/mL
- MIC (E. coli; E. coli 6367, (wild type), non-carbapenemase producer): 0.19 µg/mL
- MIC (E. coli; E. coli 10121 (CTX-M-2)): 0.19 µg/mL
- MIC (E. coli; E. coli 10121, CTX-M-2, non-carbapenemase producer): 0.19 µg/mL
- MIC (E. coli; E. coli 10122, CTX-M-1 + TEM-1, non-carbapenemase producer): 0.19 µg/mL
- MIC (E. coli; E. coli 0404018, VIM-1+ CMY-6): 3 µg/mL
- MIC (E. coli; E. coli 1008077, VIM-1+ TEM-1 + CTX-M-15): >32 µg/mL
- MIC (E. coli; E. coli 1108013, IMP-1 + TEM-1): 0.5 µg/mL
- MIC (E. coli; E. coli ALL (NDM-1 + OXA-1 + OXA-2 + CTX-M-15 + TEM-1)): 4 µg/mL
- MIC (E. coli; E. coli ALL, NDM-1 + TEM-1 + CTX-M-15 + OXA-1 + OXA-2): 4 µg/mL
- MIC (E. coli; E. coli AME (OXA-48 + CTX-M-24)): 0.25 µg/mL
- MIC (E. coli; E. coli AME, OXA-48 + CTX-M-24): 0.25 µg/mL
- MIC (E. coli; E. coli AUS (NDM-1 + CTX-M-15 + TEM-1)): 6 µg/mL
- MIC (E. coli; E. coli AUS, NDM-1 + TEM-1 + CTX-M-15): 6 µg/mL
- MIC (E. coli; E. coli BER (OXA-48 + CTX-M-15)): 0.38 µg/mL
- MIC (E. coli; E. coli BER, OXA-48 + TEM-1 + CTX-M-15): 0.38 µg/mL
- MIC (E. coli; E. coli BOK (OXA-48 + CTX-M-15)): 0.25 µg/mL
- MIC (E. coli; E. coli BOK, OXA-48 + CTX-M-15): 0.25 µg/mL
- MIC (E. coli; E. coli BON (OXA-48 + CTX-M-24 + TEM-1)): 0.38 µg/mL
- MIC (E. coli; E. coli BON, OXA-48 + TEM-1 + CTX-M-24): 0.38 µg/mL
